Test results as given in a melting point compilation (Tetko et al.; mined from patent text by program, amines drawn as free bases though some values may be those of a salt).

Row | Compound | melting point [°C]
1 | CCOc1cc(Cc2cnc(N)nc2N)cc2c1OC(C)(C)C=C2C#CC(C)O (stereo not given) | 218 to 219
2 | NCCc1csc(N)n1 | 69 to 71
3 | CCC(C(O)c1ccc(Cl)cc1)n1ncn(-c2ccc(N3CCN(c4ccc(O)cc4)CC3)cc2)c1=O (stereo not given) | 270
4 | O=[N+]([O-])c1cccc(C(O)CN2CCNC2=S)c1 (stereo not given) | 163
5 | Cc1ccc(-n2nc(C#N)cc2-c2ccc(S(C)(=O)=O)cc2)cc1Cl | 174 to 176
6 | O=C(O)C[C@H]1CC[C@H](Sc2nc(C3OCCO3)n(Cc3cc4c(cc3Cl)OCO4)c2C(=O)O)CC1 | 145
7 | CC(C)(C)c1cc(SCCC(=O)N2CCN(Cc3ccccc3)CC2)cc(C(C)(C)C)c1O | 92.5 to 95
8 | CC1=C(C)N(C(=O)Oc2ccccc2)C(c2ccc(C)cc2)C=C1 (stereo not given) | 106
9 | NS(=O)(=O)c1ccc2c(c1)C(=O)CCC2 | 197 to 198
10 | Cc1nc2cc(-n3cccc3)ccc2o1 | 115 to 121
11 | CCOc1ccc(-c2ccc(OC(CC)CCN3CCN(c4cncs4)CC3)cc2)cc1 (stereo not given) | 149 to 150
12 | CC1(C)OC(=O)Nc2ccc(-c3ccccc3CC#N)cc21 | 176 to 179
13 | COc1ccc(-c2cccc3c2COC3=O)c2c1OCCO2 | 158 to 160
14 | CCC(=O)c1ccc(CCNS(=O)(=O)c2ccccc2)cc1 | 116
15 | COc1ccccc1N1CCN(CCCNC(=O)c2cccc3c2OC(C2CCCCC2)CC3)CC1 (stereo not given) | 79 to 83
16 | CCCOc1ccc(C(=O)O)cc1C(C)=O | 165 to 169
17 | CCCCCCCCCC(=O)Nc1ccc(S(=O)(=O)Nc2nncs2)cc1 | 151 to 152
18 | C[C@H]1CN(c2nc(-c3ccccc3)nc3ccccc23)[C@@H](C)CN1c1ccccn1 (relative stereo) | 68 to 70
19 | Cc1cc(OC(=O)C(C)(C)C)cc(C)c1O | 92 to 94
20 | O=C(O)CCc1cccc(NC(=O)NCC(=O)N2[C@@H](c3ccccc3)CC[C@H]2c2ccccc2)c1 | 170
21 | CNC(=CC#N)c1ccc2ccccc2c1 | 138
22 | O=C(CCc1cc(C2CCCCC2)c(O)c(C2CCCCC2)c1)OCCCCCCOC(=O)CCc1cc(C2CCCCC2)c(O)c(C2CCCCC2)c1 | 113 to 115
23 | Nc1nc(Cl)c2ccccc2n1 | 275 to 278
24 | O=C(c1ccccc1)c1cc(-c2ccccc2)c(OS(=O)(=O)c2ccc(C(=O)O)c(O)c2)c(-c2ccccc2)c1 | 217

Row | Compound | melting point [°C]
25 | CCCC(=O)N1CCN(C(=O)OC2C3=C(SCCS3)C(=O)N2c2ccc3ccc(Cl)nc3n2)CC1 (stereo not given) | 248
26 | COc1cc2c3ccc(OC)c(OC)c3n(S(=O)(=O)c3ccccc3)c2cc1OC | 205 to 206
27 | O=C(NCC1Cc2c(cccc2-c2ccccc2)O1)OCc1ccccc1 (stereo not given) | 132 to 134
28 | COc1cc(C=CC#N)cc(OC)c1OC | 92.1
29 | CCOC(=O)c1c(O)c2ccc(C)nc2n(C)c1=O | 143 to 145
30 | Cc1ccc(Nc2nc(-c3ccc(-c4ccccn4)s3)cs2)nc1 | 197 to 199
31 | CS(=O)(=O)N1CCN([C@@H](CNC(=O)c2ccc(OCc3cccc4ccccc34)cc2)C(=O)NO)CC1 | 170
32 | O=c1oc2c(c(O)c1C(c1ccccc1)C1CC1)CCCCC2C(O)C1CC1 (stereo not given) | 88 to 90
33 | O=C(O)c1cn(-c2ccc(F)cc2)c2cc(-c3ccncc3)ccc2c1=O | 280 to 281
34 | CN(C)CCCOc1ccc(-c2nn(CC(=O)O)c3ncccc23)cc1 | 221 to 223
35 | CCOC(=O)c1cc(CCc2cc3c(s2)-n2c(C)nnc2CN=C3c2ccccc2Cl)ccc1CC(=O)O | 128 to 132
36 | CCCn1c(=O)nc(Sc2ccc(Cl)cc2)sc1=S | 151 to 152
37 | Cc1nccc2c3ccc(OCc4ccc(F)cc4)cc3n(Cc3ccc(F)cc3)c12 | 175
38 | COC(=O)C(C)(C)Cc1ccc2oc(-c3ccc4ccc(Cl)cc4n3)cc2c1 | 137 to 138
39 | CCc1cc(OCc2ccc(-c3ccccc3-c3nnn(C(c4ccccc4)(c4ccccc4)c4ccccc4)n3)cc2)c2c(n1)CCCCC2 | 147 to 148
40 | CCCc1c2nc(C(=O)Nc3ccccc3)cc(Cl)c2cc2c(=O)cc(C(=O)Nc3ccccc3)oc12 | > 315
41 | CCCCCS(=O)(=O)NC(=O)c1ccc2nc(C)n(Cc3ccc(NC)cc3Cl)c2n1 | 185 to 186
42 | CS(=O)(=O)c1ccc(-c2cnn(-c3ccc([N+](=O)[O-])cc3)c(=O)c2-c2ccc(F)cc2)cc1 | 110 to 116
43 | Cc1c(-c2ccccc2)c(N2CC[C@@H](N(C)C)C2)c2oc(C(=O)N(C)C)nc2c1C#N | 67 to 70
44 | CC(=CC(=O)c1cccnc1)N1CCCC1 | 116 to 118
45 | CC(C)[C@H](NCc1ccc(Br)cc1)C(=O)O | 239 to 241
46 | CCCCCCCCCCc1csc2c1S(=O)(=O)c1c(CCCCCCCCCC)csc1-2 | 58.7 to 60.3
47 | Cc1cccc(-c2ccc(-c3nnc(-c4cccc(C(=O)O)c4)o3)cc2)c1 | 240 to 242
48 | O=C(c1cccc(F)c1)N1Cc2c(-c3ccc(F)cc3)ncn2-c2ccccc21 | 176 to 177

Row | Compound | melting point [°C]
49 | N#Cc1ccc2c(c1)C(=O)CC2 | 109
50 | O=C(Nc1ccc2scnc2c1C1CCN(C/C=C/c2ccc(Cl)cc2)CC1)c1ccnc(Cl)c1 | 99 to 103
51 | CCOC(=O)c1cn2c(nc1=O)CCC2 | 59 to 60
52 | CCCc1ccc(OC(C)=O)c(C2(OC(C)=O)C(=O)c3ccccc3C2=O)c1 | 108 to 111
53 | O=C(C=CC=Cc1ccccc1)c1cccc([N+](=O)[O-])c1 | 58 to 60
54 | O=C1NCC=Cc2c1[nH]c(Br)c2Br | 170 to 175
55 | CC1CC1n1cc(C(=O)O)c(=O)c2cc(F)c(N3CCNCC3)cc21 (stereo not given) | 110 to 120
56 | CC(Cc1c[nH]c2ccccc12)(NC(=O)OC1C2CC3CC(C2)CC1C3)C(=O)NCCC1=CCCCC1 (stereo not given) | 77 to 79
57 | CS(=O)(=O)N(Cc1ccc(C(F)(F)F)cc1)CC(O)(Cn1cncn1)c1ccc(Cl)cc1Cl (stereo not given) | 139 to 141
58 | Cc1c2n(c3ccc(Br)cc13)CCCC2O (stereo not given) | 120 to 123
59 | COc1ccc([N+](=O)[O-])cc1NC(C)=O | 172 to 177
60 | Nc1ccc2ccc(Oc3ccccc3F)nc2n1 | 206
61 | Cn1c(COc2ccc(CC3SC(=O)N(C(c4ccccc4)(c4ccccc4)c4ccccc4)C3=O)cc2)nc2ccc(Sc3ccccc3)nc21 (stereo not given) | 90 to 95
62 | COc1ccc(-c2cccs2)cc1 | 111
63 | CCOC(=O)c1[nH]cc2c1NC1=C(C(=O)CNC1)C2c1ccc(Sc2nc3cc(F)c(F)cc3[nH]2)o1 (stereo not given) | 190 to 196
64 | Cc1oc(-c2ccccc2)nc1CCc1nc(COc2ccccc2CC(=O)O)cs1 | 152 to 153
65 | N#CC1(C2(O)CCCCC2)Cc2cc3c(cc21)NCC3 (stereo not given) | 168 to 170
66 | CC(C)(C)C(=O)OCc1nc2cc3c(cc2c(=O)[nH]1)C(=O)CC3 | 185 to 190
67 | O=C(Cc1ccc(C(=O)O)cc1)Nc1cccc(/C=C/c2nc(C3CCC3)cs2)c1 | 262 to 263
68 | Cc1cccc2c(Cl)cc(C(F)(F)Cl)nc12 | 46 to 48
69 | Cc1cccc(-n2nc(C)c(C)c2-c2cc3cnccc3s2)n1 | 108 to 109
70 | COc1ccccc1NC(=O)NCc1cccc2c1CN(C1CCC(=O)NC1=O)C2=O (stereo not given) | 187 to 189
71 | O=c1c2ccc(OCCCN3CCN(Cc4ccc(Cl)cc4)CC3)cc2oc2nn[nH]c12 | 215 to 216
72 | O=C(NCCN1CCC2(CC1)C(=O)NCN2c1ccccc1)c1ccc(Cl)cc1 | 201

Row | Compound | melting point [°C]
73 | N#CC(=CNc1ccccc1)Cc1ccc2ccccc2c1 | 148 to 153
74 | Cc1ccc(C2Sc3ccccc3NC(=O)C2COS(C)(=O)=O)cc1 (stereo not given) | 207
75 | CS(=O)(=O)c1ccc(-c2cnn(CCc3ccccc3)c(=O)c2-c2ccc(F)cc2)cc1 | 170 to 171
76 | O=S(=O)(Cl)c1ccc(-c2cccs2)s1 | 63 to 64
77 | COc1ccc(C(C#Cc2ccccc2)Cc2nc(C)co2)cc1OC1CCCC1 (racemic) | 56 to 57
78 | Cc1cc(C)c(C(=O)O)s1 | 153 to 155
79 | CCC(c1oc2ccccc2c(=O)c1-c1ccc(F)cc1)n1cnc2c(N)ncnc21 (stereo not given) | 223 to 227
80 | Cc1ccccc1-n1c(CSc2ncnc3[nH]cnc23)nc2cccc(Cl)c2c1=O | 214
81 | O=C1C(=O)c2c(nc3cc(Cl)ccn23)-c2ccccc21 | > 300
82 | CCCCCCCCCCCCCCCC(=O)Nc1cc([N+](=O)[O-])ccc1O | 146 to 148
83 | COc1ccc(C(=O)Nc2ccccc2)cc1NS(=O)(=O)c1ccc(NC(C)=O)cc1 | 250 to 251
84 | COc1ccc(NCCCOc2ccc3ccc(OCCCNc4ccc(OC)cc4)cc3c2)cc1 | 127
85 | CCOC(=O)c1ccc(N)cc1O | 113 to 115
86 | CN1CCC(O)(c2ccccc2C(O)c2ccccc2)CC1 (stereo not given) | 190 to 191
87 | COc1ccc(-c2nnc(NC3CCN(Cc4ccc(C(=O)O)cc4)CC3)c3cc(OC)ccc23)cc1 | 295
88 | CCOc1ccc(CC(=O)Cc2csc(-c3ccc(OC)c(OC)c3)n2)cc1OCC | 141 to 142
89 | COc1ccc(CNC(=O)c2[nH]c(C)c(-c3nc4ccc(C(=O)c5ccccc5)cc4[nH]3)c2C)cc1OC | 120 to 122
90 | CCOC(=O)CC12C(OS(=O)(=O)C(F)(F)F)=CC(C(C)CCCC(C)C)C1(C)CCC1=C2CCC2CC(OC(=O)c3ccccc3)CCC12C (stereo not given) | 132 to 134
91 | CCOC(=O)CC(=O)Nc1c(-c2ccccc2)nn2ccccc12 | 160 to 161
92 | CCN(CC)CCNC(=O)c1cc(Cl)c(N)cc1OCCOC(C)=O | 101 to 102
93 | CC(C)(C)c1cc(-c2ccc(C(=O)O)cc2)cc(C(C)(C)C)c1O | > 240
94 | O=S(=O)(c1ccc(Cl)cc1)C(c1cc(F)ccc1F)c1cc(NCc2ccncc2)ncc1Cl (stereo not given) | 141 to 142
95 | COCCOCc1c(CN(C)CC(O)c2c[nH]c3ccccc23)sc2c(=O)c(C(=O)NCc3ccc(Cl)cc3)cn(C)c12 (stereo not given) | 167 to 169
